Measurements taken from the CheMixHub viscosity set.

Experiment: xn = mol fraction of the nth substance listed

O=C1CCCO1 + CC#N
Conditions | viscosity [mPa·s]
293.15 K, 101 kPa, x2 = 0.1054 | 1.604
293.15 K, 101 kPa, x2 = 0.1934 | 1.392
293.15 K, 101 kPa, x2 = 0.3007 | 1.172
293.15 K, 101 kPa, x2 = 0.4029 | 0.998
293.15 K, 101 kPa, x2 = 0.5036 | 0.849
293.15 K, 101 kPa, x2 = 0.6012 | 0.732
293.15 K, 101 kPa, x2 = 0.702 | 0.608
293.15 K, 101 kPa, x2 = 0.8008 | 0.518
293.15 K, 101 kPa, x2 = 0.8993 | 0.433
298.15 K, 101 kPa, x2 = 0.1054 | 1.484
298.15 K, 101 kPa, x2 = 0.1934 | 1.292
298.15 K, 101 kPa, x2 = 0.3007 | 1.092
298.15 K, 101 kPa, x2 = 0.4029 | 0.934
298.15 K, 101 kPa, x2 = 0.5036 | 0.8
298.15 K, 101 kPa, x2 = 0.6012 | 0.691
298.15 K, 101 kPa, x2 = 0.702 | 0.576
298.15 K, 101 kPa, x2 = 0.8008 | 0.495
298.15 K, 101 kPa, x2 = 0.8993 | 0.414
298.15 K, 101.33 kPa, x2 = 0.0503 | 1.591
298.15 K, 101.33 kPa, x2 = 0.0938 | 1.471
298.15 K, 101.33 kPa, x2 = 0.1387 | 1.375
298.15 K, 101.33 kPa, x2 = 0.2001 | 1.253
298.15 K, 101.33 kPa, x2 = 0.249 | 1.164
298.15 K, 101.33 kPa, x2 = 0.3005 | 1.074
298.15 K, 101.33 kPa, x2 = 0.3969 | 0.925
298.15 K, 101.33 kPa, x2 = 0.4459 | 0.86
298.15 K, 101.33 kPa, x2 = 0.4998 | 0.79
298.15 K, 101.33 kPa, x2 = 0.5515 | 0.728
298.15 K, 101.33 kPa, x2 = 0.5979 | 0.676
298.15 K, 101.33 kPa, x2 = 0.7014 | 0.571
298.15 K, 101.33 kPa, x2 = 0.7522 | 0.525
298.15 K, 101.33 kPa, x2 = 0.8006 | 0.485
298.15 K, 101.33 kPa, x2 = 0.8359 | 0.456
298.15 K, 101.33 kPa, x2 = 0.8994 | 0.409
298.15 K, 101.33 kPa, x2 = 0.9532 | 0.365
303.15 K, 101 kPa, x2 = 0.1054 | 1.378
303.15 K, 101 kPa, x2 = 0.1934 | 1.204
303.15 K, 101 kPa, x2 = 0.3007 | 1.021
303.15 K, 101 kPa, x2 = 0.4029 | 0.877
303.15 K, 101 kPa, x2 = 0.5036 | 0.756
303.15 K, 101 kPa, x2 = 0.6012 | 0.655
303.15 K, 101 kPa, x2 = 0.702 | 0.547
303.15 K, 101 kPa, x2 = 0.8008 | 0.473
303.15 K, 101 kPa, x2 = 0.8993 | 0.395
308.15 K, 101 kPa, x2 = 0.1054 | 1.284
308.15 K, 101 kPa, x2 = 0.1934 | 1.126
308.15 K, 101 kPa, x2 = 0.3007 | 0.958
308.15 K, 101 kPa, x2 = 0.4029 | 0.827
308.15 K, 101 kPa, x2 = 0.5036 | 0.716
308.15 K, 101 kPa, x2 = 0.6012 | 0.621
308.15 K, 101 kPa, x2 = 0.702 | 0.52
308.15 K, 101 kPa, x2 = 0.8008 | 0.452
308.15 K, 101 kPa, x2 = 0.8993 | 0.378
313.15 K, 101 kPa, x2 = 0.1054 | 1.201
313.15 K, 101 kPa, x2 = 0.1934 | 1.055
313.15 K, 101 kPa, x2 = 0.3007 | 0.902
313.15 K, 101 kPa, x2 = 0.4029 | 0.781
313.15 K, 101 kPa, x2 = 0.5036 | 0.68
313.15 K, 101 kPa, x2 = 0.6012 | 0.591
313.15 K, 101 kPa, x2 = 0.702 | 0.496
313.15 K, 101 kPa, x2 = 0.8008 | 0.431
313.15 K, 101 kPa, x2 = 0.8993 | 0.363
318.15 K, 101 kPa, x2 = 0.1054 | 1.125
318.15 K, 101 kPa, x2 = 0.1934 | 0.991
318.15 K, 101 kPa, x2 = 0.3007 | 0.85
318.15 K, 101 kPa, x2 = 0.4029 | 0.74
318.15 K, 101 kPa, x2 = 0.5036 | 0.647
318.15 K, 101 kPa, x2 = 0.6012 | 0.563
318.15 K, 101 kPa, x2 = 0.702 | 0.473
318.15 K, 101 kPa, x2 = 0.8008 | 0.413
318.15 K, 101 kPa, x2 = 0.8993 | 0.344
323.15 K, 101 kPa, x2 = 0.1054 | 1.058
323.15 K, 101 kPa, x2 = 0.1934 | 0.934
323.15 K, 101 kPa, x2 = 0.3007 | 0.803
323.15 K, 101 kPa, x2 = 0.4029 | 0.702
323.15 K, 101 kPa, x2 = 0.5036 | 0.617
323.15 K, 101 kPa, x2 = 0.6012 | 0.538
323.15 K, 101 kPa, x2 = 0.702 | 0.452
323.15 K, 101 kPa, x2 = 0.8008 | 0.396
323.15 K, 101 kPa, x2 = 0.8993 | 0.33

C[N+](C)(C)CC(=O)[O-] + CC(=O)CCC(=O)O
viscosity [mPa·s]
Conditions | 298.15 K | 303.15 K | 308.15 K | 313.15 K | 318.15 K | 323.15 K
100 kPa, x2 = 0.667 | 1342 | 857.3 | 572.3 | 393.6 | 268.9 | 194.2
101 kPa, x2 = 0.7 | – | 838 | – | – | – | 221
101 kPa, x2 = 0.9 | 117.7 | – | – | – | – | –

N#C[S-].[NH4+] + CC(=O)[O-].CC[n+]1ccn(C)c1
viscosity [mPa·s], 101 kPa
Conditions | x1 = 0.02 | x1 = 0.1002 | x1 = 0.1998 | x1 = 0.2514 | x1 = 0.3001 | x1 = 0.3199 | x1 = 0.3413
298.15 K | 136.6 | 160.2 | 190.7 | 198.6 | 194.6 | 195.4 | 196.4
303.15 K | 100.9 | 117.6 | 139.3 | 144.4 | 141.9 | 142.8 | 143.6
308.15 K | 76.44 | 88.53 | 104 | 107.4 | 105.9 | 106.6 | 107.3
313.15 K | 59.28 | 68.07 | 79.27 | 81.46 | 80.5 | 81.14 | 81.73
318.15 K | 46.92 | 53.32 | 61.47 | 62.88 | 62.26 | 62.81 | 63.32
323.15 K | 37.79 | 42.45 | 48.4 | 49.28 | 48.89 | 49.35 | 49.79

CCCC#N + CC(C)(C)O
viscosity [mPa·s]
Conditions | 298.15 K | 303.15 K | 308.15 K | 313.15 K | 318.15 K
101 kPa, x2 = 0.0941 | 0.5487 | 0.5396 | 0.519 | – | –
101 kPa, x2 = 0.1845 | 0.5808 | 0.5686 | 0.5478 | – | –
101 kPa, x2 = 0.2837 | 0.6365 | 0.6123 | 0.5852 | – | –
101 kPa, x2 = 0.3758 | 0.7071 | 0.6764 | 0.6373 | – | –
101 kPa, x2 = 0.4766 | 0.8042 | 0.7523 | 0.6952 | – | –
101 kPa, x2 = 0.5782 | 0.9457 | 0.8545 | 0.7793 | – | –
101 kPa, x2 = 0.6804 | 1.211 | 1.071 | 0.9743 | – | –
101 kPa, x2 = 0.7836 | 1.61 | 1.417 | 1.268 | – | –
101 kPa, x2 = 0.8906 | 2.345 | 2.01 | 1.734 | – | –
101.33 kPa, x2 = 0.0953 | 0.575 | 0.54 | 0.51 | 0.481 | 0.456
101.33 kPa, x2 = 0.1938 | 0.613 | 0.573 | 0.537 | 0.505 | 0.476
101.33 kPa, x2 = 0.2941 | 0.669 | 0.622 | 0.579 | 0.54 | 0.506
101.33 kPa, x2 = 0.3922 | 0.749 | 0.689 | 0.636 | 0.589 | 0.546
101.33 kPa, x2 = 0.4949 | 0.867 | 0.788 | 0.719 | 0.66 | 0.607
101.33 kPa, x2 = 0.591 | 1.03 | 0.923 | 0.834 | 0.753 | 0.685
101.33 kPa, x2 = 0.695 | 1.297 | 1.138 | 1.006 | 0.895 | 0.802
101.33 kPa, x2 = 0.7957 | 1.727 | 1.476 | 1.272 | 1.107 | 0.974
101.33 kPa, x2 = 0.9002 | 2.573 | 2.103 | 1.746 | 1.464 | 1.245

COC(=O)CC(=O)OC + CC(C)=O
303.15 K, 101 kPa
Conditions | viscosity [mPa·s]
x1 = 0.0666 | 0.4127
x1 = 0.139 | 0.5371
x1 = 0.2164 | 0.6676
x1 = 0.3009 | 0.8036
x1 = 0.392 | 0.9488
x1 = 0.4919 | 1.094
x1 = 0.6008 | 1.258
x1 = 0.7208 | 1.429
x1 = 0.8531 | 1.614

COc1ccccc1O + CC(C)=O
303.15 K, 101 kPa
Conditions | viscosity [mPa·s]
x2 = 0.1 | 3.67
x2 = 0.2 | 2.95
x2 = 0.3 | 2.35
x2 = 0.4 | 1.82
x2 = 0.5 | 1.26
x2 = 0.6 | 1.03
x2 = 0.7 | 0.755
x2 = 0.8 | 0.573
x2 = 0.9 | 0.44

Brc1ccccc1 + CC(C)CO
viscosity [mPa·s], 101.33 kPa
Conditions | x1 = 0.1065 | x1 = 0.1936 | x1 = 0.2949 | x1 = 0.4015 | x1 = 0.5016 | x1 = 0.6014 | x1 = 0.7006 | x1 = 0.7967 | x1 = 0.8995
298.15 K | 2.649 | 2.205 | 1.831 | 1.532 | 1.36 | 1.231 | 1.144 | 1.088 | 1.055
313.15 K | 1.727 | 1.483 | 1.28 | 1.116 | 1.022 | 0.9534 | 0.9062 | 0.8769 | 0.8637
